Source: patent US7625950B2, “Amino-propanol derivatives as sphingosine-1-phosphate receptor modulator” (Novartis AG, priority 2003, dated 2009)
Counter-ions that a name gives are not always drawn.

Assays:
[1] = molecular target: T1, human S1P receptor EDG-1 (S1P1) (Homo sapiens, UniProt P21453); assay: S1P receptor profiling, GTP[γ-35S] binding SPA, S1P1; type: biochemical; conditions: for S1P1 mode of action (Agon. = agonist): GTP[γ-35S] binding SPA; for EC50: GTP[γ-35S] binding to membrane protein of transfected CHO or RH7777 cells, SPA
T1 construct: expressed in transfected cells
T1 sequence (P21453 whole entry): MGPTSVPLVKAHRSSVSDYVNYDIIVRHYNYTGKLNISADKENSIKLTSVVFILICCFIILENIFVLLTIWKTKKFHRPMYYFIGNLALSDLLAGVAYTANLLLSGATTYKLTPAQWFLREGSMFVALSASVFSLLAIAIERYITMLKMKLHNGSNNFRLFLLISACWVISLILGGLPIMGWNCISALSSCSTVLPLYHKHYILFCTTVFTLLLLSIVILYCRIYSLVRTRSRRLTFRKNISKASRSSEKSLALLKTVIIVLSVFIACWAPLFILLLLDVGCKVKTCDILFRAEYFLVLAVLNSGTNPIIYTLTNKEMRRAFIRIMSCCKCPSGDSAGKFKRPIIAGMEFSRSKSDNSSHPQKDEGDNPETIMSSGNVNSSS
Protocol: (§1) Sphingosine-1-Phosphate (S1P) Receptor Profiling
(§2) Agonist activities of compounds are tested on the human SIP receptors EDG-1 (S1P1), EDG-3 (S1P3), EDG-5 (S1P2), EDG-6 (S1P4) and EDG-8 (S1P5). […] The assay technology used is SPA (scintillation proximity based assay). Briefly, DMSO dissolved compounds are serially diluted and added to SPA-bead (Amersham-Pharmacia) immobilised SIP receptor expressing membrane protein (10-20 μg/well) in the presence of 50 mM Hepes, 100 mM NaCl, 10 mM MgCl2, 10 μM GDP, 0.1% fat free BSA and 0.2 nM GTP [γ-^35S] (1200 Ci/mmol). After incubation in 96 well microtiterplates at RT for 120 min, unbound GTP [γ-^35S] is separated by a centrifugation step. Luminescence of SPA beads triggered by membrane bound GTP [γ-^35S] is quantified with a TOP count plate reader (Packard). EC50s are calculated using standard curve fitting software. In this assay, the compounds of formula I have a binding affinity to S1P1 receptor <50 nM.

[2] = molecular target: T2, human S1P receptor EDG-3 (S1P3) (Homo sapiens, UniProt Q99500); assay: S1P receptor profiling, GTP[γ-35S] binding SPA, S1P3; type: biochemical; conditions: for S1P3 mode of action (Agon. = agonist): GTP[γ-35S] binding SPA; for EC50: GTP[γ-35S] binding to membrane protein of transfected CHO or RH7777 cells, SPA
T2 construct: expressed in transfected cells
T2 sequence (Q99500 whole entry): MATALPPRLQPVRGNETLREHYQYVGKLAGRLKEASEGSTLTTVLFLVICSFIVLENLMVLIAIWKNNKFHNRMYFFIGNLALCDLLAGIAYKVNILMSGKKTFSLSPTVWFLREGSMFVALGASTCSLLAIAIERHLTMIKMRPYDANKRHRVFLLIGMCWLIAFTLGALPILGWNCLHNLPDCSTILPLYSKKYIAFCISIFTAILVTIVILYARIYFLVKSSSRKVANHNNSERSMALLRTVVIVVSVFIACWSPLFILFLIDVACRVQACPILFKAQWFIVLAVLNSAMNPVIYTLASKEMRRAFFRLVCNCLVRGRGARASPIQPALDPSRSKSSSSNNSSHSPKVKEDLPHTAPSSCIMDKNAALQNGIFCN
Protocol: as §1, §2

[3] = molecular target: T3, human S1P receptor EDG-6 (S1P4) (Homo sapiens, UniProt O95977); assay: S1P receptor profiling, GTP[γ-35S] binding SPA, S1P4; type: biochemical; conditions: for S1P4 mode of action (Agon. = agonist): GTP[γ-35S] binding SPA; for EC50: GTP[γ-35S] binding to membrane protein of transfected CHO or RH7777 cells, SPA
T3 construct: expressed in transfected cells
T3 sequence (O95977 1-384): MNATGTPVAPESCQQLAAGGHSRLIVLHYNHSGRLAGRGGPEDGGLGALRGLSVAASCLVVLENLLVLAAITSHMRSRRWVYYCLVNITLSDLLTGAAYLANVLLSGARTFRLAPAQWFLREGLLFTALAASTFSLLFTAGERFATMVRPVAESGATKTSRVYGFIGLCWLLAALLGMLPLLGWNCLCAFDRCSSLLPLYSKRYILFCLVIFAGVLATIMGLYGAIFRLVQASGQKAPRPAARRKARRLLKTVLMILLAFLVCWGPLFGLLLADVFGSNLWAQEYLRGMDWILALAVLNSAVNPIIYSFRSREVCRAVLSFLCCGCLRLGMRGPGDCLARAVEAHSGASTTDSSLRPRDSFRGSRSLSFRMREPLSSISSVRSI
Protocol: as §1, §2

[4] = molecular target: T4, human S1P receptor EDG-8 (S1P5) (Homo sapiens, UniProt Q9H228); assay: S1P receptor profiling, GTP[γ-35S] binding SPA, S1P5; type: biochemical; conditions: for S1P5 mode of action (Agon. = agonist): GTP[γ-35S] binding SPA; for EC50: GTP[γ-35S] binding to membrane protein of transfected CHO or RH7777 cells, SPA
T4 construct: expressed in transfected cells
T4 sequence (Q9H228 whole entry): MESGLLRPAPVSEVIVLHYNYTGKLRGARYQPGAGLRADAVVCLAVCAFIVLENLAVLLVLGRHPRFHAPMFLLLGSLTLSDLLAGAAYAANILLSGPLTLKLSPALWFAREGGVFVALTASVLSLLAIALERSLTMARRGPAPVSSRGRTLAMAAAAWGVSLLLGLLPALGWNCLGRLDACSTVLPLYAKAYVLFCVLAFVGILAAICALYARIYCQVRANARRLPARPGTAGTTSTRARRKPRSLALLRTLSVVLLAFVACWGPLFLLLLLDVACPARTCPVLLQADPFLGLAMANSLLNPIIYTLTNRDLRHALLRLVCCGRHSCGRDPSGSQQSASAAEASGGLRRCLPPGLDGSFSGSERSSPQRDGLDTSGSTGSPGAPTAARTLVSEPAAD
Protocol: as §1, §2

[5] = test system: peripheral blood lymphocytes; assay: Blood lymphocyte depletion; type: in vivo; conditions: rats, p.o.
Protocol: B. In Vivo: Blood Lymphocyte Depletion
A compound of formula I or the vehicle is administered orally by gavage to rats. Tail blood for hematological monitoring is obtained on day −1 to give the baseline individual values, and at 2, 6, 24, 48 and 72 hours after application.

| S1P1 mode of action (Agon. = agonist) [1] | EC50 [1] | S1P3 mode of action (Agon. = agonist) [2] | EC50 [2] | S1P4 mode of action (Agon. = agonist) [3] | EC50 [3] | S1P5 mode of action (Agon. = agonist) [4] | EC50 [4] | Structure (SMILES) | dose giving depletion of peripheral blood lymphocytes by more than 50% ([5]; after 6 h) | dose giving depletion of peripheral blood lymphocytes by more than 50% ([5]; after 24 h) | dose giving depletion of peripheral blood lymphocytes by more than 50% ([5]; after 48 h) |
| --- | --- | --- | --- | --- | --- | --- | --- | --- | --- | --- | --- |
| Agon. | 8.5 nM | Agon. | > 10000 nM | Agon. | 1.6 nM | Agon | 16.5 nM | COc1ccc(Br)cc1OCCCOc1ccc(CCC(N)(CO)COP(=O)(O)O)cc1 (centres unmarked) [Example 56] |  |  |  |
| Agon. | 5.5 nM |  | > 1000 nM | Agon. | 8.2 nM | Agon. | 6.3 nM | C[C@@](N)(CCc1ccc(OCCOc2cccc(F)c2F)cc1)COP(=O)(O)O [Example 42] |  |  |  |
|  |  |  |  |  |  |  |  | C[C@](N)(CO)CCc1ccc(OCCOc2ccc(Cl)cc2)cc1 [Example 1, (R)-2-Amino-4-{4-[2-(4-chloro-phenoxy)-ethoxy]-phenyl}-2-methyl-butan-1-ol Hydrochloride] | 0.03 mg/kg | 0.02 mg/kg |  |
| Agon. | 8 nM | Agon. | 340 nM | Agon. | 43 nM | Agon. | 0.5 nM | COc1cc(CC[C@@](C)(N)COP(=O)(O)O)ccc1OCCOc1ccccc1 [Example 43] |  |  |  |
| Agon. | 0.6 nM | Agon. | 15 nM |  | > 1000 nM | Agon. | 14 nM | C[C@@](N)(CCc1ccc(OCCOc2ccc(Cl)cc2)cc1)COP(=O)(O)O [Example 36, (R)-Mono-(2-amino-4-{4-[2-(4-chloro-phenoxy)-ethoxy]-phenyl}-2-methyl-butyl) phosphate] |  |  |  |
| Agon. | 8.6 nM |  | > 1000 nM | Agon. | 28 nM | Agon. | 11.7 nM | C[C@@](N)(CCc1ccc(OCCOc2ccccc2)cc1)COP(=O)(O)O [Example 38] |  |  |  |
|  |  |  |  |  |  |  |  | COc1ccc(Br)cc1OCCCOc1ccc(CC[C@@](C)(N)CO)cc1 [Example 53, (R)-2-Amino-4-{4-[3-(5-bromo-2-methoxy-phenoxy)-propoxy]-phenyl}-2-methyl-butan-1-ol Hydrochloride] | 0.1 mg/kg |  | 0.5 mg/kg |
